Values of other authors, collected in PMC8513935.
Blank lines part the entries; values can stand above or below the compound they belong to.

Columns and labels:
[1] = log P octanol/water from commercial databases, averaged (the ESI); details: Octanol (wet), 25 C
[2] = experimental, compiled by the authors from the literature (the ESI cites the sources)
[3] = derived by the authors as gas->solvent minus gas->water (a hypothetical dry solvent; the ESI), not a two-phase measurement

Compound: ClC(Cl)(Cl)Cl
log K of transfer, water to solvent [1]: 2.83 log10 K
log K of transfer, gas to solvent ([2]; 1,2-Dichloroethane, 25 C): 3.04 log10 K
log K of transfer, gas to solvent ([2]; 2-Methylpropan-2-ol, 25 C): 2.74 log10 K
log K of transfer, gas to solvent ([2]; Acetonitrile, 25 C): 2.68 log10 K
log K of transfer, gas to solvent ([2]; Butan-1-ol, 25 C): 2.84 log10 K
log K of transfer, gas to solvent ([2]; Butanone, 25 C): 3.04 log10 K
log K of transfer, gas to solvent ([2]; CCl4, 25 C): 3.24 log10 K
log K of transfer, gas to solvent ([2]; Chloroform, 25 C): 3.25 log10 K
log K of transfer, gas to solvent ([2]; Cyclohexanone, 25 C): 3.17 log10 K
log K of transfer, gas to solvent ([2]; Di-n-butyl ether, 25 C): 3.05 log10 K
log K of transfer, gas to solvent ([2]; Diethyl Ether, 25 C): 3.22 log10 K
log K of transfer, gas to solvent ([2]; Ethanol, 25 C): 2.75 log10 K
log K of transfer, gas to solvent ([2]; Hexadecane, 25 C): 2.82 log10 K
log K of transfer, gas to solvent ([2]; Hexan-1-ol, 25 C): 2.81 log10 K
log K of transfer, gas to solvent ([2]; Hexane, 25 C): 3.03 log10 K
log K of transfer, gas to solvent ([2]; Methanol, 25 C): 2.66 log10 K
log K of transfer, gas to solvent ([2]; Octan-1-ol, 25 C): 2.79 log10 K
log K of transfer, gas to solvent ([2]; Propan-1-ol, 25 C): 2.75 log10 K
log K of transfer, gas to solvent ([2]; Propanone, 25 C): 3.04 log10 K
log K of transfer, gas to solvent ([2]; Propionitrile, 25 C): 2.86 log10 K
log K of transfer, gas to solvent ([2]; Tetrahydrofuran, 25 C): 3.41 log10 K
log K of transfer, gas to solvent ([2]; Water, 25 C): -0.06 log10 K
log K of transfer, water to solvent ([3]; 1,2-Dichloroethane, 25 C): 3.1 log10 K
log K of transfer, water to solvent ([3]; 2-Methylpropan-2-ol, 25 C): 2.8 log10 K
log K of transfer, water to solvent ([3]; Acetone, 25 C): 3.1 log10 K
log K of transfer, water to solvent ([3]; Acetonitrile, 25 C): 2.74 log10 K
log K of transfer, water to solvent ([3]; Butan-1-ol, 25 C): 2.9 log10 K
log K of transfer, water to solvent ([3]; Butanone, 25 C): 3.1 log10 K
log K of transfer, water to solvent ([3]; CCl4, 25 C): 3.3 log10 K
log K of transfer, water to solvent ([3]; Chloroform, 25 C): 3.31 log10 K
log K of transfer, water to solvent ([3]; Cyclohexanone, 25 C): 3.23 log10 K
log K of transfer, water to solvent ([3]; Di-n-butyl ether, 25 C): 3.11 log10 K
log K of transfer, water to solvent ([3]; Diethyl Ether, 25 C): 3.28 log10 K
log K of transfer, water to solvent ([3]; Ethanol, 25 C): 2.81 log10 K
log K of transfer, water to solvent ([3]; Hexadecane, 25 C): 2.88 log10 K
log K of transfer, water to solvent ([3]; Hexan-1-ol, 25 C): 2.87 log10 K
log K of transfer, water to solvent ([3]; Hexane, 25 C): 3.09 log10 K
log K of transfer, water to solvent ([3]; Methanol, 25 C): 2.72 log10 K
log K of transfer, water to solvent ([3]; Octan-1-ol(dry), 25 C): 2.85 log10 K
log K of transfer, water to solvent ([3]; Propan-1-ol, 25 C): 2.81 log10 K
log K of transfer, water to solvent ([3]; Propionitrile, 25 C): 2.92 log10 K
log K of transfer, water to solvent ([3]; Tetrahydrofuran, 25 C): 3.47 log10 K

log K of transfer, water to solvent [1]: 4.5 log10 K
log K of transfer, gas to solvent ([2]; 1,2-Dichloroethane, 25 C): 2.98 log10 K
log K of transfer, gas to solvent ([2]; 2-Methylpropan-1-ol, 25 C): 2.87 log10 K
log K of transfer, gas to solvent ([2]; 2-Methylpropan-2-ol, 25 C): 2.9 log10 K
log K of transfer, gas to solvent ([2]; 3-Methylbutan-1-ol, 25 C): 2.89 log10 K
log K of transfer, gas to solvent ([2]; Acetonitrile, 25 C): 2.35 log10 K
log K of transfer, gas to solvent ([2]; Butan-1-ol, 25 C): 2.88 log10 K
log K of transfer, gas to solvent ([2]; Butanone, 25 C): 3.03 log10 K
log K of transfer, gas to solvent ([2]; Butyronitrile, 25 C): 2.82 log10 K
log K of transfer, gas to solvent ([2]; CCl4, 25 C): 3.48 log10 K
log K of transfer, gas to solvent ([2]; Chlorobenzene, 25 C): 3.47 log10 K
log K of transfer, gas to solvent ([2]; Chloroform, 25 C): 3.39 log10 K
log K of transfer, gas to solvent ([2]; Cyclohexanone, 25 C): 2.95 log10 K
log K of transfer, gas to solvent ([2]; Di-n-butyl ether, 25 C): 3.38 log10 K
log K of transfer, gas to solvent ([2]; Dichloromethane, 25 C): 3.27 log10 K
log K of transfer, gas to solvent ([2]; Ethanol, 25 C): 2.71 log10 K
log K of transfer, gas to solvent ([2]; Hexadecane, 25 C): 3.17 log10 K
log K of transfer, gas to solvent ([2]; Hexan-1-ol, 25 C): 2.93 log10 K
log K of transfer, gas to solvent ([2]; Hexane, 25 C): 3.5 log10 K
log K of transfer, gas to solvent ([2]; Methanol, 25 C): 2.5 log10 K
log K of transfer, gas to solvent ([2]; Octan-1-ol, 25 C): 2.95 log10 K
log K of transfer, gas to solvent ([2]; Perfluoroalkane, 25 C): 2.25 log10 K
log K of transfer, gas to solvent ([2]; Propan-1-ol, 25 C): 2.74 log10 K
log K of transfer, gas to solvent ([2]; Propan-2-ol, 25 C): 2.74 log10 K
log K of transfer, gas to solvent ([2]; Propanone, 25 C): 2.81 log10 K
log K of transfer, gas to solvent ([2]; Propionitrile, 25 C): 2.67 log10 K
log K of transfer, gas to solvent ([2]; Tetrahydrofuran, 25 C): 3.34 log10 K
log K of transfer, gas to solvent ([2]; Toluene, 25 C): 3.33 log10 K
log K of transfer, gas to solvent ([2]; Water, 25 C): -1.96 log10 K
log K of transfer, water to solvent ([3]; 1,2-Dichloroethane, 25 C): 4.94 log10 K
log K of transfer, water to solvent ([3]; 2-Methylpropan-1-ol, 25 C): 4.83 log10 K
log K of transfer, water to solvent ([3]; 2-Methylpropan-2-ol, 25 C): 4.86 log10 K
log K of transfer, water to solvent ([3]; 3-Methylbutan-1-ol, 25 C): 4.85 log10 K
log K of transfer, water to solvent ([3]; Acetone, 25 C): 4.77 log10 K
log K of transfer, water to solvent ([3]; Acetonitrile, 25 C): 4.31 log10 K
log K of transfer, water to solvent ([3]; Butan-1-ol, 25 C): 4.84 log10 K
log K of transfer, water to solvent ([3]; Butanone, 25 C): 4.99 log10 K
log K of transfer, water to solvent ([3]; Butyronitrile, 25 C): 4.78 log10 K
log K of transfer, water to solvent ([3]; CCl4, 25 C): 5.44 log10 K
log K of transfer, water to solvent ([3]; Chlorobenzene, 25 C): 5.43 log10 K
log K of transfer, water to solvent ([3]; Chloroform, 25 C): 5.35 log10 K
log K of transfer, water to solvent ([3]; Cyclohexanone, 25 C): 4.91 log10 K
log K of transfer, water to solvent ([3]; Di-n-butyl ether, 25 C): 5.34 log10 K
log K of transfer, water to solvent ([3]; Dichloromethane, 25 C): 5.23 log10 K
log K of transfer, water to solvent ([3]; Ethanol, 25 C): 4.67 log10 K
log K of transfer, water to solvent ([3]; Hexadecane, 25 C): 5.13 log10 K
log K of transfer, water to solvent ([3]; Hexan-1-ol, 25 C): 4.89 log10 K
log K of transfer, water to solvent ([3]; Hexane, 25 C): 5.46 log10 K
log K of transfer, water to solvent ([3]; Methanol, 25 C): 4.46 log10 K
log K of transfer, water to solvent ([3]; Octan-1-ol(dry), 25 C): 4.91 log10 K
log K of transfer, water to solvent ([3]; Perfluoroalkane, 25 C): 4.21 log10 K
log K of transfer, water to solvent ([3]; Propan-1-ol, 25 C): 4.7 log10 K
log K of transfer, water to solvent ([3]; Propan-2-ol, 25 C): 4.7 log10 K
log K of transfer, water to solvent ([3]; Propionitrile, 25 C): 4.63 log10 K
log K of transfer, water to solvent ([3]; Tetrahydrofuran, 25 C): 5.3 log10 K
log K of transfer, water to solvent ([3]; Toluene, 25 C): 5.29 log10 K
Compound: CCCCCCC

log K of transfer, water to solvent [1]: 2.58 log10 K
log K of transfer, gas to solvent ([2]; 1,2-Dichloroethane, 25 C): 2.62 log10 K
log K of transfer, gas to solvent ([2]; 2-Methylpropan-2-ol, 25 C): 2.16 log10 K
log K of transfer, gas to solvent ([2]; Butan-1-ol, 25 C): 2.17 log10 K
log K of transfer, gas to solvent ([2]; CCl4, 25 C): 2.68 log10 K
log K of transfer, gas to solvent ([2]; Chlorobenzene, 25 C): 2.61 log10 K
log K of transfer, gas to solvent ([2]; Cyclohexanone, 25 C): 2.66 log10 K
log K of transfer, gas to solvent ([2]; Diethyl Ether, 25 C): 2.48 log10 K
log K of transfer, gas to solvent ([2]; Hexadecane, 25 C): 2.27 log10 K
log K of transfer, gas to solvent ([2]; Hexane, 25 C): 2.51 log10 K
log K of transfer, gas to solvent ([2]; Propan-2-ol, 25 C): 2.05 log10 K
log K of transfer, gas to solvent ([2]; Tetrahydrofuran, 25 C): 2.5 log10 K
log K of transfer, gas to solvent ([2]; Water, 25 C): -0.8 log10 K
log K of transfer, water to solvent ([3]; 1,2-Dichloroethane, 25 C): 3.42 log10 K
log K of transfer, water to solvent ([3]; 2-Methylpropan-2-ol, 25 C): 2.96 log10 K
log K of transfer, water to solvent ([3]; Butan-1-ol, 25 C): 2.97 log10 K
log K of transfer, water to solvent ([3]; CCl4, 25 C): 3.48 log10 K
log K of transfer, water to solvent ([3]; Chlorobenzene, 25 C): 3.41 log10 K
log K of transfer, water to solvent ([3]; Cyclohexanone, 25 C): 3.46 log10 K
log K of transfer, water to solvent ([3]; Diethyl Ether, 25 C): 3.28 log10 K
log K of transfer, water to solvent ([3]; Hexadecane, 25 C): 3.07 log10 K
log K of transfer, water to solvent ([3]; Hexane, 25 C): 3.31 log10 K
log K of transfer, water to solvent ([3]; Propan-2-ol, 25 C): 2.85 log10 K
log K of transfer, water to solvent ([3]; Tetrahydrofuran, 25 C): 3.3 log10 K
Compound: CC(C)(C)Cl

log K of transfer, water to solvent [1]: 0.82 log10 K
log K of transfer, gas to solvent ([2]; Cyclohexane, 25 C): 3.15 log10 K
log K of transfer, gas to solvent ([2]; Hexadecane, 25 C): 2.81 log10 K
log K of transfer, gas to solvent ([2]; Octan-1-ol, 25 C): 3.2 log10 K
log K of transfer, gas to solvent ([2]; Water, 25 C): 2.5 log10 K
log K of transfer, water to solvent ([3]; Cyclohexane, 25 C): 0.65 log10 K
log K of transfer, water to solvent ([3]; Hexadecane, 25 C): 0.311 log10 K
log K of transfer, water to solvent ([3]; Octan-1-ol(dry), 25 C): 0.7 log10 K
Compound: CCC(=O)CC
